Data reported in paper PMC5386672, “Structure-guided design of purine-based probes for selective Nek2 inhibition” (Oncotarget, 2016).

Assays:
Nek2 = target: T1, Nek2 (Homo sapiens, UniProt P51955); experiment: Nek2 Caliper kinase inhibition assay; type: biochemical; conditions: 30 μM ATP; for inhibition at 50 µM: @ 50 μM compound
T1 construct: purchased Invitrogen
T1 sequence (P51955 1-445): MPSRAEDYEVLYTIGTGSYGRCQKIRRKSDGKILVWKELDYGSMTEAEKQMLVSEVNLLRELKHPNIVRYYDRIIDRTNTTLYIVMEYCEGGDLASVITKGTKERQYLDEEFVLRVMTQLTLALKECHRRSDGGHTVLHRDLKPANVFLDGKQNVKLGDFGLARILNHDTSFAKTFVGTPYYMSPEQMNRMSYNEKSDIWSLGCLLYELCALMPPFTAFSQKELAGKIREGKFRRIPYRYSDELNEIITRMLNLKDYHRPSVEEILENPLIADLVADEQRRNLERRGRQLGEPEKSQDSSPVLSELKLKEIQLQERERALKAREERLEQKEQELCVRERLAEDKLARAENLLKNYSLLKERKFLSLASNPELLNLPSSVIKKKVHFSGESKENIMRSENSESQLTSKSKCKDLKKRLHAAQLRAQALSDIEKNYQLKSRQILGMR

CDK2 = CDK2 (Homo sapiens, UniProt P24941); experiment: CDK2 kinase inhibition assay; type: biochemical

Row | Structure (SMILES) | IC50 (Nek2; Caliper assay) | IC50 (CDK2; 12.5 μM ATP) | melting point | inhibition at 50 µM (Nek2) | selectivity for CDK2 over Nek2 (CDK2; from IC50 values) | Nek2 IC50 (Nek2; Caliper assay) | inhibition at 100 µM (Nek2; @ 100 μM compound) | inhibition at 100 µM (CDK2; @ 100 μM compound, 12.5 μM ATP)
1 | CNC(=O)Cc1cccc(Nc2nc(OCC3CCCCC3)c3nc[nH]c3n2)c1 [Compound 15] | 1300 nM | 320 nM | 176 to 177 °C |  |  |  |  | 
2 | O=C(NCCN1CCOCC1)Nc1ccc(Nc2nc(OCC3CCCCC3)c3nc[nH]c3n2)cc1 [Compound 16, 1-(4-(6-(Cyclohexylmethoxy)-9H-purin-2-ylamino)phenyl)-3-(2-morpholinoethyl)urea] | 2200 nM | 1100 nM | 161 to 163 °C |  |  |  |  | 
3 | CN(C)CCCNC(=O)Nc1ccc(Nc2nc(OCC3CCCCC3)c3nc[nH]c3n2)cc1 [Compound 18, 1-(4-(6-(Cyclohexylmethoxy)-9H-purin-2-ylamino)phenyl)-3-(3-(dimethylamino)propyl)urea] | 1200 nM | 720 nM | 110 to 112 °C |  |  |  |  | 
4 | O=[N+]([O-])c1ccc(Nc2nc(OCC3CCCCC3)c3nc[nH]c3n2)cc1 [Compound 19, 6-(Cyclohexylmethoxy)-N-(4-nitrophenyl)-9H-purin-2-amine] | > 50000 nM | 1900 nM | 180 to 181 °C |  |  |  |  | 
5 | O=[N+]([O-])c1cccc(Nc2nc(OCC3CCCCC3)c3nc[nH]c3n2)c1 [Compound 20, 6-(Cyclohexylmethoxy)-N-(3-nitrophenyl)-9H-purin-2-amine] | > 50000 nM | 890 nM | 217 to 218 °C |  |  |  |  | 
6 | Nc1ccc(Nc2nc(OCC3CCCCC3)c3[nH]cnc3n2)cc1 [Compound 21, 2-(4-Aminophenyl)amino-6-cyclohexylmethoxy-purine] | 6300 nM | 220 nM | 228 to 230 °C |  |  |  |  | 
7 | Nc1cccc(Nc2nc(OCC3CCCCC3)c3[nH]cnc3n2)c1 [Compound 22, 2-(3-Aminophenyl)amino-6-cyclohexylmethoxy-purine] | 5900 nM | 700 nM | 117 to 118 °C (dec.) |  |  |  |  | 
8 | O=C(O)c1cccc(Nc2nc(OCC3CCCCC3)c3nc[nH]c3n2)c1 [Compound 23, 3-(6-Cyclohexylmethoxy-9H-purin-2-ylamino)benzoic acid] | 4300 nM | 990 nM | 182 to 184 °C (dec.) |  |  |  |  | 
9 | O=C(Nc1ccc(Nc2nc(OCC3CCCCC3)c3nc[nH]c3n2)cc1)c1ccncc1 [Compound 30, N-[4-(6-Cyclohexylmethoxy-9H-purin-2-ylamino)phenyl]isonicotinamide] |  | 2200 nM | 248 to 250 °C (dec.) | 51% |  |  |  | 
10 | NC(=O)Nc1cccc(Nc2nc(OCC3CCCCC3)c3nc[nH]c3n2)c1 [Compound 31, 1-(3-(6-(Cyclohexylmethoxy)-9H-purin-2-ylamino)phenyl) urea] | 3600 nM | 380 nM | 193 to 194 °C |  | 10 fold |  |  | 
11 | O=C(c1cccc(Nc2nc(OCC3CCCCC3)c3nc[nH]c3n2)c1)N1CCCCC1 [Compound 32, [3-(6-Cyclohexylmethoxy-9H-purin-2-ylamino)phenyl]piperidin-1-ylmethanone] |  | 18000 nM | 133 to 135 °C | 57% |  |  |  | 
12 | CN(C)CCCCNC(=O)c1cccc(Nc2nc(OCC3CCCCC3)c3nc[nH]c3n2)c1 [Compound 33, 3-(6-Cyclohexylmethoxy-9H-purin-2-ylamino)-N-(4-dimethylaminobutyl)benzamide] | 3800 nM | 730 nM | 125 to 127 °C |  |  |  |  | 
13 | CC(C)CNC(=O)Cc1cccc(Nc2nc(OCC3CCCCC3)c3nc[nH]c3n2)c1 [Compound 34, 2-[3-(6-Cyclohexylmethoxy-9H-purin-2-anilino)]-N-isobutylacetamide] |  | 940 nM | 144 to 145 °C | 79% |  |  |  | 
14 | O=C(Cc1cccc(Nc2nc(OCC3CCCCC3)c3nc[nH]c3n2)c1)NC1CCCC1 [Compound 35] | 4100 nM | 1100 nM | 228 to 229 °C |  |  |  |  | 
15 | O=C(Cc1cccc(Nc2nc(OCC3CCCCC3)c3nc[nH]c3n2)c1)NC1CCCCC1 [Compound 36] | 8400 nM | 2100 nM | 226 to 227 °C |  |  |  |  | 
16 | CN(C(=O)Cc1cccc(Nc2nc(OCC3CCCCC3)c3nc[nH]c3n2)c1)C1CCCCC1 [Compound 37] |  | 1600 nM | 134 to 135 °C | 26% |  |  |  | 
17 | CC(C)N(C(=O)Cc1cccc(Nc2nc(OCC3CCCCC3)c3nc[nH]c3n2)c1)C(C)C [Compound 38] | 21000 nM | 3200 nM | 126 to 127 °C |  |  |  |  | 

Row | Structure (SMILES) | IC50 (Nek2; Caliper assay) | IC50 (CDK2; 12.5 μM ATP) | melting point | inhibition at 50 µM (Nek2) | selectivity for CDK2 over Nek2 (CDK2; from IC50 values) | Nek2 IC50 (Nek2; Caliper assay) | inhibition at 100 µM (Nek2; @ 100 μM compound) | inhibition at 100 µM (CDK2; @ 100 μM compound, 12.5 μM ATP)
18 | CCCNC(=O)Cc1cccc(Nc2nc(OCC3CCCCC3)c3nc[nH]c3n2)c1 [Compound 39] |  | 740 nM | 141 to 142 °C (dec.) | 82% |  |  |  | 
19 | O=C(Cc1cccc(Nc2nc(OCC3CCCCC3)c3nc[nH]c3n2)c1)NCCCO [Compound 40] | 1300 nM | 800 nM | 132 to 133 °C |  |  |  |  | 
20 | O=C(Cc1cccc(Nc2nc(OCC3CCCCC3)c3nc[nH]c3n2)c1)NCCCn1ccnc1 [Compound 41, 2-[3-(6-Cyclohexylmethoxy-9H-purin-2-ylamino)phenyl]-N-(3-imidazol-1-yl-propyl)acetamide] | 6130 nM | 1600 nM | 192 to 193 °C |  |  |  |  | 
21 | CN(C)CCNC(=O)Cc1cccc(Nc2nc(OCC3CCCCC3)c3nc[nH]c3n2)c1 [Compound 43, 2-[3-(6-Cyclohexylmethoxy-9H-purin-2-ylamino)phenyl]-N-(2-dimethylaminoethyl)acetamide] | 1000 nM | 590 nM | 161 to 162 °C |  |  |  |  | 
22 | CN(C)CCCCNC(=O)Cc1cccc(Nc2nc(OCC3CCCCC3)c3nc[nH]c3n2)c1 [Compound 45, 2-[3-(6-Cyclohexylmethoxy-9H-purin-2-ylamino)phenyl]-N-(4-dimethylaminobutyl)acetamide] | 700 nM | 860 nM | 125 to 127 °C |  |  |  |  | 
23 | CN1CCN(CCCNC(=O)Cc2cccc(Nc3nc(OCC4CCCCC4)c4nc[nH]c4n3)c2)CC1 [Compound 46, 2-[3-(6-Cyclohexylmethoxy-9H-purin-2-ylamino)phenyl]-N-[3-(4-methylpiperazin-1-yl)propyl]acetamide] | 3600 nM | 2400 nM | 157 to 158 °C |  |  |  |  | 
24 | O=C(Cc1cccc(Nc2nc(OCC3CCCCC3)c3nc[nH]c3n2)c1)NCCCc1ccccc1 [Compound 47, 2-[3-(6-Cyclohexylmethoxy-9H-purin-2-ylamino)phenyl]-N-(3-phenylpropyl)acetamide] |  | 10000 nM | 154 to 155 °C |  |  | Inactive |  | 
25 | O=S(=O)(Cc1cccc(Nc2nc(OCC3CCCCC3)c3nc[nH]c3n2)c1)N1CCNCC1 [Compound 50, 1-(3-(6-Cyclohexylmethoxy-9H-purin-2-ylamino)phenylmethanesulfonyl)piperazine] | 2600 nM | 450 nM | 127 to 128 °C |  |  |  |  | 
26 | CN(C)CCCNS(=O)(=O)Cc1cccc(Nc2nc(OCC3CCCCC3)c3nc[nH]c3n2)c1 [Compound 51, 1-[3-(6-Cyclohexylmethoxy-9H-purin-2-ylamino)phenyl]-N-(3-dimethylaminopropyl)methanesulfonamide] | 1420 nM | 530 nM | 167 to 168 °C |  |  |  |  | 
27 | COc1ccc(CNS(=O)(=O)Cc2cccc(Nc3nc(OCC4CCCCC4)c4nc[nH]c4n3)c2)cc1 [Compound 52, 1-[3-(6-Cyclohexylmethoxy-9H-purin-2-ylamino)phenyl]-N-(4-methoxybenzyl)methanesulfonamide] |  | 3000 nM | 118 to 119 °C |  |  |  | 38% | 
28 | NS(=O)(=O)Cc1cccc(Nc2nc(OCC3CCCCC3)c3nc[nH]c3n2)c1 [Compound 53, [3-(6-Cyclohexylmethoxy-9H-purin-2-ylamino)phenyl]methanesulfonamide] |  | 240 nM | 134 to 135 °C | 81% |  |  |  | 
29 | CCOc1nc(Nc2cccc(CC(=O)NCCCn3ccnc3)c2)nc2[nH]cnc12 [Compound 62, 2-[3-(6-Ethoxy-9H-purin-2-ylamino)-phenyl]-N-(3-imidazol-1-ylpropyl)acetamide] | 2800 nM | 5200 nM | 176 to 177 °C |  |  |  |  | 
30 | O=C(NCCN1CCCCC1)Nc1ccc(Nc2ncc3nc[nH]c3n2)cc1 [Compound 65, 1-(4-((9H-purin-2-yl)amino)phenyl)-3-(2-(piperidin-1-yl)ethyl)urea] | 4500 nM |  | 96 to 98 °C |  |  |  |  | 30%
31 | O=C(Cc1cccc(Nc2ncc3nc[nH]c3n2)c1)NCCCn1ccnc1 [Compound 67, N-(3-Imidazol-1-yl-propyl)-2-[3-(9H-purin-2-ylamino)phenyl]acetamide] | 5900 nM | > 100000 nM | 121 to 122 °C |  |  |  |  | 
32 | C(=C\N1CCCC1)/c1nc(Nc2ccccc2)nc2[nH]cnc12 [Compound 69, (E)-N-Phenyl-6-(2-(pyrrolidin-1-yl)vinyl)-9H-purin-2-amine] | 340 nM | 5800 nM | 138 to 140 °C |  |  |  |  | 
33 | CN(C)[C@@H]1CCN(/C=C/c2nc(Nc3ccccc3)nc3[nH]cnc23)C1 [Compound 73, (R, E)-6-(2-(3-(Dimethylamino)pyrrolidin-1-yl)vinyl)-N-phenyl-9H-purin-2-amine] | 3000 nM | 6900 nM | 136 to 138 °C |  |  |  |  | 
